{
  "source": "paper PMC3982195",
  "about": "(The FEBS journal, 2014)",
  "key": {"[1]": {"molecular_target": "T1, cytosolic nucleotidase II (LpcN-II) (Legionella pneumophila, UniProt Q5ZZB6)", "T1 sequence (Q5ZZB6 1-459 limits assumed)": "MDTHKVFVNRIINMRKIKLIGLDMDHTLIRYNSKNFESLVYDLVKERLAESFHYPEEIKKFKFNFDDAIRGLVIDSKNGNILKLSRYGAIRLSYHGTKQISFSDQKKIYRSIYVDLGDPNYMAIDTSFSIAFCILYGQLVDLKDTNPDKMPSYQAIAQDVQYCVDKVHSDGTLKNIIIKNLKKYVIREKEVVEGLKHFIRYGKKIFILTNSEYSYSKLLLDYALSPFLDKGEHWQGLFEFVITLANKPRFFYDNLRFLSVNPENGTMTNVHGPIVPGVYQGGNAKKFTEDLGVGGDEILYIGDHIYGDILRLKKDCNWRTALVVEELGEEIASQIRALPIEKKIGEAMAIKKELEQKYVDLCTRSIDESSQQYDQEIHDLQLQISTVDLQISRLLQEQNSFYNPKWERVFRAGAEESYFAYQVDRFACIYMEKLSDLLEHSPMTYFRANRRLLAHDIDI", "type": "biochemical"}, "[2]": {"molecular_target": "T1, cytosolic nucleotidase II (LpcN-II)", "test": "biochemical", "type": "binding"}, "[3]": {"molecular_target": "T1, cytosolic nucleotidase II (LpcN-II)", "type": "biochemical", "remark": "listed apart in the source"}, "[4]": {"molecular_target": "T1, cytosolic nucleotidase II (LpcN-II)", "type": "biochemical", "remark": "listed apart in the source"}, "[5]": {"system": "O=[N+]([O-])c1ccc(OP(=O)(O)O)cc1", "test": "purified protein"}},
  "data": [
    {"molecule": "O=c1[nH]cnc2c1ncn2[C@@H]1O[C@H](COP(=O)(O)OP(=O)(O)OP(=O)(O)O)[C@@H](O)[C@H]1O", "note": "[ITP]", "values": [
      {"measurement": "competitive reduction of GTP activation of pNPP hydrolysis", "setting": "[1]", "value": "indicate that IMP and ITP bind to the GTP-binding site"}
    ]},
    {"molecule": "Nc1nc2c(ncn2[C@@H]2O[C@H](COP(=O)(O)OP(=O)(O)OP(=O)(O)O)[C@@H](O)[C@H]2O)c(=O)[nH]1", "note": "[GTP]", "values": [
      {"measurement": "Kd", "setting": "[2]", "value": "4.1 ± 0.7", "unit": "mM"}
    ]},
    {"molecule": "Nc1nc2c(ncn2[C@H]2C[C@H](O)[C@@H](COP(=O)(O)OP(=O)(O)OP(=O)(O)O)O2)c(=O)[nH]1", "note": "[dGTP]", "values": [
      {"measurement": "activation of pNPP hydrolysis by purified enzyme", "setting": "[3]", "value": "GTP, dGTP, and GDP showed activation of LpcN-II activity"}
    ]},
    {"molecule": "Nc1nc2c(ncn2[C@@H]2O[C@H](COP(=O)(O)OP(=O)(O)O)[C@@H](O)[C@H]2O)c(=O)[nH]1", "note": "[GDP]", "values": [
      {"measurement": "activation of pNPP hydrolysis; competition with GTP", "setting": "[4]", "value": "GDP was also found to compete for binding to the GTP binding site"}
    ]},
    {"molecule": "cytosolic nucleotidase II (LpcN-II) (Legionella pneumophila subsp. pneumophila str. Philadelphia 1)", "values": [
      {"measurement": "K0.5", "setting": "[5]", "value": "5.1 ± 0.9", "unit": "mM"},
      {"measurement": "kcat/Km", "setting": "[5]", "value": 0.1, "unit": "M⁻¹ s⁻¹"}
    ]}
  ]
}
